Laboratory results taken from US20060263305A1, “Biofilm removing agent for removing a biofilm” (priority 2003, published 2006).

Tests used:
[1] = tested on: hepatic metabolic enzymes; settings: compared with 14-membered ring macrolide antibiotics; stated without a test; cited from earlier work
[2] = compared with 14-membered ring macrolide antibiotics; stated without a test; cited from earlier work
[3] = compared with 14-membered ring macrolide antibiotics; stated without a test; cited from earlier work; remark: listed apart in the source
[4] = tested on: biofilm formed by periodontal pathogens; test: biofilm destruction ratio on a preformed biofilm in a glass vessel; assay type: cell-based, periodontal pathogens (gram-negative bacteria); settings: 1 mg in 100 ml distilled water; biofilm formed for 24 hours; read after 24 hours; relative to distilled water alone; FIG. 1
Description: Periodontal pathogens were put in a glass vessel and left for 24 hours to form a biofilm. Then, a solution of a biofilm removing agent containing 1 mg of azithromycin as a medical agent dissolved in 100 ml of distilled water was supplied into the glass vessel. After lapse of 24 hours, a destruction ratio of the biofilm formed by the periodontal pathogens was examined. Further, the biofilm destruction ratio of the biofilm removing agent containing azithromycin according to this invention was evaluated in comparison with the biofilm destruction ratio of each of minocycline, erythromycin, and josamycin. Specifically, each of minocycline, erythromycin, and josamycin was supplied together with distilled water into a glass vessel in which the biofilm was formed. After lapse of 24 hours, the destruction ratio of the biofilm formed by the periodontal pathogens was examined. The content of each of minocycline, erythromycin, and josamycin in the distilled water was equal to that of the biofilm removing agent containing azithromycin. […] In FIG. 1, the biofilm destruction ratio by each of azithromycin, minocycline, erythromycin, and josamycin is a ratio of a destroyed or lost part of the biofilm with respect to a biofilm formed by the periodontal pathogens and supplied with distilled water alone without any antibiotic.

[5] = tested on: biofilm formed by periodontal pathogens; test: biofilm inhibition ratio (inhibiting formation of the biofilm) in a glass vessel; assay type: cell-based, periodontal pathogens (gram-negative bacteria); settings: 1 mg in 100 ml distilled water, added together with the pathogens; read after 24 hours; relative to distilled water alone; FIG. 2
Description: Periodontal pathogens were put in a glass vessel together with a biofilm removing agent containing 1 mg of azithromycin as a medical agent dissolved in 100 ml of distilled water. After lapse of 24 hours, an inhibition ratio of the biofilm to be formed by the periodontal pathogens was examined.
Further, the biofilm inhibition ratio of the biofilm removing agent containing azithromycin according to this invention was evaluated in comparison with the biofilm inhibition ration of each of minocycline, erythromycin, and josamycin. Specifically, each of minocycline, erythromycin, and josamycin was put into a glass vessel together with periodontal pathogens and distilled water. After lapse of 24 hours, the biofilm inhibition ratio of the biofilm formed by the periodontal pathogens was examined.
The content of each of minocycline, erythromycin, and josamycin in the distilled water was equal to that of the biofilm removing agent containing azithromycin.
In FIG. 2, the biofilm inhibition ratio of each of azithromycin, minocycline, erythromycin, and josamycin is a ratio of a part without the biofilm with respect to an entire biofilm formed by the periodontal pathogens in presence of distilled water alone without any antibiotic.

Row | Compound | activation of hepatic metabolic enzymes [1] | digestive side effect [2] | stability against gastric acid [3] | biofilm destruction ratio (destruction ratio of gram-negative bacteria) [4] | biofilm inhibition ratio (adhesion prevention ratio of gram-negative bacteria) [5]
1 | CC[C@H]1OC(=O)[C@H](C)[C@@H](O[C@H]2C[C@@](C)(OC)[C@@H](O)[C@H](C)O2)[C@H](C)[C@@H](O[C@@H]2O[C@H](C)C[C@H](N(C)C)[C@H]2O)[C@](C)(O)C[C@@H](C)CN(C)[C@H](C)[C@@H](O)[C@]1(C)O [azithromycin] | extremely small level | equivalent | considerably stable | about 60% | about 45%
2 | CC[C@H]1OC(=O)[C@H](C)[C@@H](O[C@H]2C[C@@](C)(OC)[C@@H](O)[C@H](C)O2)[C@H](C)[C@@H](O[C@@H]2O[C@H](C)C[C@H](N(C)C)[C@H]2O)[C@](C)(O)C[C@@H](C)C(=O)[C@H](C)[C@@H](O)[C@]1(C)O [erythromycin] | – | – | – | about 35% | about 40%
3 | CO[C@@H]1[C@@H](O[C@@H]2O[C@H](C)[C@@H](O[C@H]3C[C@@](C)(O)[C@@H](OC(=O)CC(C)C)[C@H](C)O3)[C@H](N(C)C)[C@H]2O)[C@@H](CC=O)C[C@@H](C)[C@@H](O)/C=C/C=C/C[C@@H](C)OC(=O)C[C@H]1OC(C)=O [josamycin] | – | – | – | about 25% | about 35%
4 | CN(C)c1ccc(O)c2c1C[C@H]1C[C@H]3[C@H](N(C)C)C(O)=C(C(N)=O)C(=O)[C@@]3(O)C(O)=C1C2=O [minocycline] | – | – | – | about 10% | about 23%
